US20240398767A1, “INHIBITORS OF THE MTDH-SND1 PROTEIN COMPLEX FOR CANCER THERAPY” (The Trustees of Princeton University, priority 2021, published 2024)

Experiments:
[1] = system: E0771-OVA Tap1/2 KD cells; test: E0771-OVA Tap1/2 KD cells / OT-I splenocyte co-culture; type: cell-based, mouse
Excerpt: For FIGS. 33B-33D, E0771-OVA cells with (shTap1/2) or without (shCtrl) Tap1/2 knockdown were co-cultured with OT-I splenocytes with the ratio of 1:10 (tumor cells:splenocytes). Data represent mean±SEM. n=3 independent experiments. Significance determined by one-way ANOVA analysis with Sidak's test for multiple comparisons.
FIG. 33B, 24 hr after co-culture, tumor cells were collected for examining OVA (H-2K^b-SIINFEKL) expression.
FIG. 33C, 24 hr after co-culture, tumor cells were collected for examining MHC-I expression.
FIG. 33D, 24 hr after co-culture, splenocytes were collected for examining CD137 expression.
FIG. 33E, The same co-culture experiment as in FIG. 33B were performed. The live tumor cells were indicated by luciferase signal. The percentage of live cells were determined as normalized to the non-co-culture control. Data represent mean±SEM. n=5 independent experiments. Significance determined by one-way ANOVA analysis with Sidak's test for multiple comparisons.
MTDH-SND1 suppresses antigen presentation by reducing Tap1/2. To confirm that MTDH-SND1 drives immune evasion through suppressing the Tap1/2 pathway, antigen presentation-deficient cells were generated by knocking down Tap1/2^20. E0771-OVA cells were transduced with lentiviruses expressing Tap1/2-targeting shRNAs. […]

[2] = system: PyMT tumor immune microenvironment; test: Immune cell profiling of orthotopic PyMT tumors and lungs by flow cytometry; type: in vivo, FVB females; details: six weeks after treatment
Excerpt: FIGS. 35A-35C show C26-A6 combined with anti-PD-1 treatment reshapes the tumor immune microenvironment. For FIGS. 35A-35C, 100 k PyMT tumor cells were orthotopically injected into the mammary glands of FVB females. The mice were randomized and divided into three groups when primary tumors were established, followed by vehicle, C26-A6, or C26-A6+anti-PD-1 treatment. Six weeks after treatment, primary tumors and lung with metastatic lesions were collected for flow analysis with indicated antibodies. Anti-PD-1, 200 μg/mouse i.p. injection, twice per week for the first week and then once per week after that; C26-A6, 15 mg/kg i.v. injection, 5 days per week. n=6 mice per group. Data represent mean±SEM. Significance determined by one-way ANOVA analysis with Dunnett's test for multiple comparisons.
FIG. 35A, Percentages of CD11b^+F4/80^+, Ly6G^lowLy6C^high, Ly6G^highLy6C^low, CD3-NK1.1^+ in CD45^+ population and percentage of CD4^+FOXP3^+ in CD3^+ population are shown.
FIG. 35B, Percentages of GITR^+LAG-3^+ in CD8^+ population are shown.
Flow cytometry. Dissociated tumors or lungs were dissected and prepared as previously described^10. […]. Organoids were sequentially suspended with 0.25% trypsin-EDTA for 1.5 min, 5 mg/ml Dispase (Invitrogen), and 0.1 mg/ml DNase (Sigma) for 5 min, and 0.64% ammonium chloride for 5 min at 37° C. before filtration through a 40 μm nylon cell strainer. Tumor or lung cell suspensions were incubated with an antibody cocktail in FACS buffer (PBS+3% BSA) for 30 minutes at 4° C., washed, and resuspended in FACS buffer for flow analysis. Isotype controls were used to assess specificity of antibody labeling. […] Samples were analyzed with BD FACSDiva v6 software and data was processed with FlowJo v10 software. […]

Q: Which “immune killing (live tumor cells)” value [1] does the source give for COc1ccc(Cl)cc1S(=O)(=O)Nc1cccn2nc(C)nc12 [Analog C26-A6] here?
A: no boosting of immune killing

Q: What about the “antigen presentation and T cell activation” value ([1]; 24 hr co-culture) of the same compound?
A: no such change

Q: And the “CD8+ T cell exhaustion (GITR+LAG-3+ in CD8+ population)” value [2]?
A: elevated CD8^+ T cell exhaustion

Q: And the “infiltration of Ly6GhighLy6Clow sub-population of MDSCs” value [2]?
A: reduced

Q: What about the “infiltration of Ly6GlowLy6Chigh sub-population of MDSCs” value [2] of the same compound?
A: significantly enhanced

Q: What about the “populations of macrophages, NK cells and regulatory T cells” value [2] of the same compound?
A: not significantly altered
